Data published in patent US20040053950A1, “Antimalarial activities and therapeutic properties of febrifugine analogues” (priority 2002, published 2004).
Converted amounts (≈) assume the structure as drawn. Read-outs that look alike come from different tables or passages of the source.

Assays:
Neuronal cells (NG108) = assay: In vitro drug toxicity assay, neuronal cells; type: cell-based; settings: NG-108
malarial parasites = assay: In vitro antimalarial activity, parasites in culture (strain not stated); type: cell-based
Experimental: (§1) Potential resistance to halofuginone derivatives of P. falciparum isolates were tested. Isolates of P. falciparum stored in liquid nitrogen are thawed and cultivated in RPMI 1640 media with 6% human erythrocytes supplemented with 10% of human serum. The parasite cultures are maintained in an atmosphere of 5% CO2, 5% O2 and 90% N2 at 37° C. for the assay. The semi-automated micro-dilution technique of Desjardins is used to assess the sensitivity of the parasites to febrifugine and halofuginone derivatives. The incorporation of [3H]-hypoxanthine into the parasites is measured as a function of compound concentration to determine EC50 values.

[1] = system: P. falciparum chloroquine-sensitive D6-strain; assay: In vitro drug susceptibility assay ([3H]-hypoxanthine incorporation), D6 strain; type: cell-based; settings: Plasmodium falciparum
Experimental: as §1

Macrophage cells (J774) = assay: In vitro drug toxicity assay, macrophage cells; type: cell-based; settings: Mus musculus
[2] = system: P. falciparum chloroquine-resistant W2-strain; assay: In vitro drug susceptibility assay ([3H]-hypoxanthine incorporation), W2 strain; type: cell-based; settings: Plasmodium falciparum
Experimental: as §1

Plasmodium lophurae = settings: duck models, purified febrifugine; cited from earlier work
Plasmodium berghei = assay: Modified Thompson test in P. berghei-infected mice; type: in vivo
Experimental: An active animal use protocol mouse models are used to test the above compounds to determine antimalarial activity by using modified Thompson Test. In this test, IRC mice are inoculated intraperitoneally with P. berghei-infected erythrocytes from donor mice that are anesthetized and exsanguinated via cardiac puncture to collect infected blood. The pooled blood is then diluted with normal mouse serum to a concentration of 1×10^6 P. berghei erythrocytes per inoculum (0.1 ml). The groups of testing and control mice are inoculated with the infected blood on day 0 and then treated with various dosages of halofuginone or the derivatives in aqueous-based vehicles on day 3 through the day required. The drug is administered orally (PO), subcutaneously (SC), intramuscularly (IM), and/or intraperitoneally (IP) up to three times a day, based on the requirements. Blood films and body weights are taken on the third and sixth days post-infection, then at weekly intervals through day 60. Films are Giemsa-stained, examined using light microscopy for the determination of parasitemia. All mice with negative smears at 60 days are considered cured. The data from the in vivo testing verifies the antimalarial efficacy of febrifugine, halofuginone and the halofuginone derivatives in mice and provides new properties of halofuginone and halofuginone derivatives against malarial parasites in vivo.
The modified Thompson test was conducted in eleven groups of mice with eight mice per group. The tested mice were inoculated with P. Berghei on day zero and treated with febrifugines on days three with one oral or subcutaneous treatment per day for three days. […] The parasitemia of the infected mice was reduced to less than 3% with oral administration of 10 mg/kg febrifugines one/day for three days, while mice with the subcutaneous treatment had 30% of parasitemia at the same does as shown in FIGS. 3(a) through 3(d).
Eighty-eight ICR mice were inoculated with P. berghei, and separated into nine groups. Eight of the infected groups were treated with […] different doses of halofuginone twice a day for eight days. One group was treated with physiological saline as control. […] Two mice were cured at the doses of 0.25 and 0.5 mg/kg and survived 60 days after the treatment. […] The parasites were all cleared at the does of 1 mg/kg on day six.

PfMRK = biological target: T1, PfMRK (Plasmodium falciparum, UniProt P90584); assay: Kinase assay, recombinant plasmodial cyclin-dependent kinase; type: biochemical; settings: recombinant kinase; dash = no inhibition; read-out: PFMRK (IC50:μM)
T1 sequence (P90584 1-324): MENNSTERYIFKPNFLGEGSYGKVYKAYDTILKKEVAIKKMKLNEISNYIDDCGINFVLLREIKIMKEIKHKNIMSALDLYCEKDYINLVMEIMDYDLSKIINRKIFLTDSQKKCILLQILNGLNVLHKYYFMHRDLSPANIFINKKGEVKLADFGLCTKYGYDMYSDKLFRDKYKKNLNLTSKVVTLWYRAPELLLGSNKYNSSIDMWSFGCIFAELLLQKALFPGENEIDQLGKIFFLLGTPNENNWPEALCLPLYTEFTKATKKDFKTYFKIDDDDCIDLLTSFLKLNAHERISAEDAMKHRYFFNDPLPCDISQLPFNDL
Excerpt: Halofuginone is a known to be a specific collagen gene transcription inhibitor. However, inhibition to other target enzymes by febrifugine, halofuginone and halofuginone derivatives in malarial parasites remain unknown. Quinazoline analogues (the family to which these compounds belong) are known to target dihydrofolate reductase, mammalian EGFR kinase, the stress-activated protein kinase and cyclin dependent kinase. A series of enzymatic assays are used to detect whether the derivatives have inhibition against these enzymes. DHFR assay is conducted using a well-characterized spectrophotometric method. Kinase assays are conducted using radioisotope-labeling technique. The responses of the recombinant kinases to the derivatives are measured in a scintillation b-counter and illustrated using SDS-page gel and PhosphoImager. These tests provide information on the compounds' abilities to interfere with the functions of these enzymes and alter the parasite physiological pathways on a molecular basis.

[3] = Table 4, D6, read-out: IC50 P. falciparum (D6)
[4] = Table 4, W2, read-out: IC50 P. falciparum (W2)
[5] = Table 1, D6 strain, read-out: IC50 against P. falciparum D6 strain
[6] = Table 1, W2 strain, read-out: IC50 against P. falciparum W2 strain

| IC50 [1, 3] [µg/mL] | IC50 [2, 4] [µg/mL] | IC50 [1, 5] [µg/mL] | IC50 [2, 6] [µg/mL] | IC50 (PfMRK) [µM] | SMILES | IC50 (Neuronal cells (NG108); Table 4, NG108) [µg/mL] | in vitro antimalarial activity relative to chloroquine and artemisinin (malarial parasites) | IC50 ([1]; D6, read-out: IC50 P. falciparum (D6)) [µg/mL] | IC50 (Macrophage cells (J774); Table 4, J774) [µg/mL] | IC50 ([2]; W2, read-out: IC50 P. falciparum (W2)) [µg/mL] | antimalarial activity relative to quinine (Plasmodium lophurae) | rank of in vitro potency against malarial parasites among febrifugine derivatives (malarial parasites) | lethal toxicity in infected mice (Plasmodium berghei; dose higher than 1 mg/kg twice a day) | mouse survival time (Plasmodium berghei; doses of 0.125, 0.25 and 0.5 mg/kg twice a day for eight days, ICR mice) | parasitemia of the infected mice on day six (Plasmodium berghei; doses of 0.25 and 0.5 mg/kg twice a day) | mice cured (survived 60 days after the treatment) (Plasmodium berghei; doses of 0.25 and 0.5 mg/kg twice a day for eight days) | IC50 (Neuronal cells (NG108); Table 2, NG108) [µg/mL] | IC50 (Macrophage cells (J774); Table 2, J774) [µg/mL] |
| --- | --- | --- | --- | --- | --- | --- | --- | --- | --- | --- | --- | --- | --- | --- | --- | --- | --- | --- |
| 0.291 (≈ 0.748 µM) | 0.284 (≈ 0.728 µM) | – | – | – | O=C(C[C@H]1CCCCN1C(=O)c1ccccc1)Cn1cnc2ccccc2c1=O [WR059424] | 36.8 (≈ 94.5 µM) | – | – | 3.01 (≈ 7.73 µM) | – | – | – | – | – | – | – | – | – |
| 0.193 (≈ 0.466 µM) | 0.245 (≈ 0.593 µM) | 0.203 (≈ 0.491 µM) | 0.288 (≈ 0.696 µM) | ~25 | C=CCOC(=O)N1CCCC(OCC)[C@H]1CC(=O)Cn1cnc2ccccc2c1=O (stereo partly drawn) [WR088442] | 35.1 (≈ 84.8 µM) | – | – | 7.09 (≈ 17.1 µM) | – | – | – | – | – | – | – | 21.5 (≈ 52 µM) | 9.1 (≈ 22 µM) |
| 0.0897 (≈ 0.202 µM) | 0.129 (≈ 0.292 µM) | 0.0897 (≈ 0.202 µM) | 0.129 (≈ 0.292 µM) | – | C=CCOC(=O)N1CCCC(OC)[C@H]1CC(=O)Cn1cnc2cc3c(cc2c1=O)OCO3 (stereo partly drawn) [WR089904] | 53.3 (≈ 120 µM) | – | – | 1.08 (≈ 2.43 µM) | – | – | – | – | – | – | – | 63 (≈ 142 µM) | 29.2 (≈ 65.7 µM) |

Second part, the compound before the results:

| SMILES | IC50 [1, 3] [µg/mL] | IC50 [2, 4] [µg/mL] | IC50 [1, 5] [µg/mL] | IC50 [2, 6] [µg/mL] | IC50 (PfMRK) [µM] | IC50 (Neuronal cells (NG108); Table 4, NG108) [µg/mL] | in vitro antimalarial activity relative to chloroquine and artemisinin (malarial parasites) | IC50 ([1]; D6, read-out: IC50 P. falciparum (D6)) [µg/mL] | IC50 (Macrophage cells (J774); Table 4, J774) [µg/mL] | IC50 ([2]; W2, read-out: IC50 P. falciparum (W2)) [µg/mL] | antimalarial activity relative to quinine (Plasmodium lophurae) | rank of in vitro potency against malarial parasites among febrifugine derivatives (malarial parasites) | lethal toxicity in infected mice (Plasmodium berghei; dose higher than 1 mg/kg twice a day) | mouse survival time (Plasmodium berghei; doses of 0.125, 0.25 and 0.5 mg/kg twice a day for eight days, ICR mice) | parasitemia of the infected mice on day six (Plasmodium berghei; doses of 0.25 and 0.5 mg/kg twice a day) | mice cured (survived 60 days after the treatment) (Plasmodium berghei; doses of 0.25 and 0.5 mg/kg twice a day for eight days) | IC50 (Neuronal cells (NG108); Table 2, NG108) [µg/mL] | IC50 (Macrophage cells (J774); Table 2, J774) [µg/mL] |
| --- | --- | --- | --- | --- | --- | --- | --- | --- | --- | --- | --- | --- | --- | --- | --- | --- | --- | --- |
| O=C(C[C@H]1NCCCC1O)Cn1cnc2ccccc2c1=O (stereo partly drawn) [Febrifugine, (2′S,3′R)-3-[3-(3-hydroxy-2-piperidyl)acetonyl]-4(3H)quinazolinone] | – | – | – | – | – | 0.0635 (≈ 0.211 µM) | ten times stronger than chloroquine and artemisinin | 0.00034 (≈ 0.00113 µM) | 0.081 (≈ 0.269 µM) | 0.00053 (≈ 0.00176 µM) | 100 times as active as quinine | – | – | – | – | – | – | – |
| O=C(CC1NCCCC1O)Cn1cnc2cc(Br)c(Cl)cc2c1=O (stereo not drawn) [Halofuginone] | 0.00012 (≈ 0.000289 µM) | 0.00015 (≈ 0.000362 µM) | – | – | – | 0.177 (≈ 0.427 µM) | – | – | 0.132 (≈ 0.319 µM) | – | – | the most potent analog | killed the tested mice before the parasites | extended the mouse survival time | below 0.5% | Two | – | – |
| O=C(C[C@@H]1CCCCN1)Cn1cnc2ccccc2c1=O [WR059421] | 0.0174 (≈ 0.0611 µM) | 0.0237 (≈ 0.083 µM) | 0.0171 (≈ 0.06 µM) | 0.026 (≈ 0.0912 µM) | ~27 | 8.93 (≈ 31.3 µM) | – | – | 0.492 (≈ 1.72 µM) | – | – | – | – | – | – | – | 5.38 (≈ 18.9 µM) | 0.236 (≈ 0.827 µM) |
